Laboratory results published in patent US9546150B2, “Substituted quinazolin-4-ones for inhibiting ubiquitin specific protease 7” (HYBRIGENICS SA, priority 2011, dated 2017).

Key:
[1] = biological target: T1, UCH-L1 (Homo sapiens, UniProt P09936); assay: UCH-L1 activity assay, Ub-AMC substrate; format: biochemical; settings: UbAMC substrate 300 nM, UCH-L1 2.5 nM
T1 sequence (P09936 1-223): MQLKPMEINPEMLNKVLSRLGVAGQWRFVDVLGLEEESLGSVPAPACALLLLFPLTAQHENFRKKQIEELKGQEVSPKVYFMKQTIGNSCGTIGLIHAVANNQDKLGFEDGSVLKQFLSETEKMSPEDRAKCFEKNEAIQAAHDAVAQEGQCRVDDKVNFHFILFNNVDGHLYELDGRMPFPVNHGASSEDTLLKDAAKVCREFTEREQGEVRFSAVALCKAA
Description: UCH-L1 was diluted in USP buffer (50 mM Tris HCl; 0.5 mM EDTA; 5 mM DTT (Dithiothreitol); 0.01% Triton X-100; Bovine Serum Albumin 0.05 mg·ml^−1 pH7.6). Compounds stocks (100 mM) were stored at −20° C. in DMSO. Compounds were tested at different concentrations: from 200 μM to 91 nM.
(§1) Reactions were performed as duplicates in Black 384 well plates (small volume microplates; Greiner; 10 μl final reaction volume). The substrate concentration for UCH-L1 was 300 nM Ub-AMC (Boston Biochem). The concentration of the enzyme (UCH-L1) in specificity assays was 2.5 nM. The concentrations were determined in order to perform specificity assays under initial velocities at fixed substrate concentration. Compounds were pre-incubated with enzymes for 30 minutes at 25° C. Reactions were initiated by addition of substrate to the plates containing the enzymes (+/− compounds) diluted in assay buffer. Reactions were incubated for 60 minutes at 37° C. Reactions were stopped by adding acetic acid (100 mM final). Readings were performed on a Pherastar Fluorescent Reader (BMG). λ Emission 380 nm; λ Excitation=460 nm.

[2] = biological target: T2, USP8 (Homo sapiens, UniProt P40818); assay: GST-Ub52-Flag HTRF deubiquitinating enzyme assay, USP8
T2 sequence (P40818 1-1118): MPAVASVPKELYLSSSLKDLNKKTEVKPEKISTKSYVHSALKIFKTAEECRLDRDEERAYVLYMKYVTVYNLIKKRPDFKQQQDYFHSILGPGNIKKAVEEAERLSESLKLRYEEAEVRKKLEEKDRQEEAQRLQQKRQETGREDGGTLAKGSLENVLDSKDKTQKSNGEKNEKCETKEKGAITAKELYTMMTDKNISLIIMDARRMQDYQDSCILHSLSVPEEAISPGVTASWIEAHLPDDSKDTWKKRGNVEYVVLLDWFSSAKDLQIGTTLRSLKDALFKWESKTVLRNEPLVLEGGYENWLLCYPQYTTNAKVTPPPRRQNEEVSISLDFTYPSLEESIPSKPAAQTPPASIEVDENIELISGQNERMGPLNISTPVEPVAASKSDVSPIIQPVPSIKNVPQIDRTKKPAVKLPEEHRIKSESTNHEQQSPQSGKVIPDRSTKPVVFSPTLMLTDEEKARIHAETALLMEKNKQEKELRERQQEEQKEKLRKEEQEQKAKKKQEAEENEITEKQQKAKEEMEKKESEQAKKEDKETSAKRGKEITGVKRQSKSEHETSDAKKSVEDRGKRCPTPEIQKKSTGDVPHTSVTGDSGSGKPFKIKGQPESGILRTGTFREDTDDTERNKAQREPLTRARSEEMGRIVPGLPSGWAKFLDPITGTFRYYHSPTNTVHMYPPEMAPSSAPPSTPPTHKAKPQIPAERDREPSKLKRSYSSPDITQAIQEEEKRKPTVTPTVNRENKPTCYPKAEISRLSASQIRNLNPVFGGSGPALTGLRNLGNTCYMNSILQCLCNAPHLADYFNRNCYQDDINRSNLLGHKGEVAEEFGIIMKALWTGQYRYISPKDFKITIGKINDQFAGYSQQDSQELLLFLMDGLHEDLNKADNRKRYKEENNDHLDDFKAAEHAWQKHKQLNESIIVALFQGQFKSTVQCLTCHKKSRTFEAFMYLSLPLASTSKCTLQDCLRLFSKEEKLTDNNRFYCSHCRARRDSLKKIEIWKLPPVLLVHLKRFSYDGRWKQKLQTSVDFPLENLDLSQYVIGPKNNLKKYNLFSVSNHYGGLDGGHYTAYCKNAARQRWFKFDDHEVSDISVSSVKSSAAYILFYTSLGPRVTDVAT
Description: The cDNA encoding USP8 was obtained by PCR amplification from placenta mRNA. USP8 cDNA was subcloned by PCR into a baculovirus expression vector (pFastBac-HT; Invitrogen). A cDNA encoding a mutated USP8 was generated by mutagenic PCR. […] The sequences were ascertained by sequencing of the entire open reading frame. Bacmids encoding USP8 were generated following DH10bac transposition. The corresponding bacmids were transfected into insect cells (Sf9). Viruses were recovered from culture supernatant and amplified twice. Insect cells (Sf9 or High Five; Invitrogen) were infected for 72 hours. […] Proteins were affinity purified on metal affinity resins (Talon Metal affinity resin; BD Biosciences). Bound materials were extensively washed in wash buffer (50 mM Sodium Phosphate pH 7.0; 300 mM NaCl; 10 mM imidazole; 0.5% Triton X-100; 10% glycerol) and eluted from the resin in 250 mM imidazole-containing wash buffer. Proteins were dialyzed in dialysis buffer (Tris HCl pH 7.6 20 mM; NaCl 200 mM; DTT 1 mM; EDTA 1 mM; 10% Glycerol).
A cDNA encoding the fusion protein between ubiquitin and the ribosomal protein L40 (ub52 or uba52 or ubiquitin-L40) was amplified from human RNA using a proprietary human placenta library. The cDNA was subcloned into a bacterial expression vector (pGEX-2T, GE Healthcare), including an additional flag tag at the carboxyl end of the encoded protein.
For production and purification of recombinant proteins, the plasmid pGEX-2T-Ub52-flag was transformed into E. coli BL21 (Stratagene), grown in LB medium supplemented with 100 mg/ml ampicillin (LB ampi) at 37° C. overnight and then diluted 1/100 in LB ampi. The cells were incubated at 37° C. until an A600=0.6-0.8 was reached. After induction with 0.1 mM isopropyl-β-D-thiogalactopyranoside (IPTG), the culture was incubated at 30° C. for 180 min.
Cells were harvested by centrifugation for 15 min at 7000×g at 4° C. Bacterial pellets were lysed in NETN (Tris HCl pH 8.0; EDTA 1 mM; NP40 0.5%; protease inhibitor cocktail, PMSF 1 mM) and briefly sonicated. Insoluble material was removed by centrifugation 30 min at 14000×g. […] Briefly, soluble fraction was incubated on Glutathione beads pre-equilibrated in NETN buffer+0.5% Milk for 120 min at 4° C. Flow Through was recovered. Beads were extensively washed: the last wash was performed in Tris HCl pH 7.6 20 mM; NaCl 100 mM; MgCl2 12 mM. Elutions were performed using 20 mM Reduced Glutathione in 50 mM Tris HCl pH 8.0, NaCl 120 mM. […] Elutions were dialysed over night at 4° C. in Tris HCl pH 7.6 20 mM; NaCl 50 mM; DTT 0.5 mM.
The use of GST-Ub52-Flag is based on the time-resolved measurement of fluorescence emitted by transfer in homogenous medium.
The assay is carried out on multiwell assay plates. The plates are analyzed on a PHERAstar fluorimeter (BMG) after an overnight incubation at 4° C.
The enzyme reaction is carried out by mixing GST-Ub52-flag solution with 5 μl of USP7 solution (200 pM final) or 5 μl of USP8 (400 pM final). This mixture is incubated for one hour at room temperature on a multiwell assay plate. […] The plate is read after an overnight incubation at 4° C. on a PHERAstar fluorimeter (BMG).
The decrease in the signal correlates with the increase in enzyme activity i.e. the cleavage of GST-Ub52-Flag substrate.
Data (mean values+/−standard deviation) were analyzed as % of control (no compound) and plotted as percentage versus the Log of the compound concentration using GraphPad (Prism).

[3] = biological target: T3, UCH-L3 (Homo sapiens, UniProt P15374); assay: UCH-L3 activity assay, Ub-AMC substrate; format: biochemical; settings: UbAMC substrate 300 nM, UCH-L3 13 pM
T3 sequence (P15374 1-230): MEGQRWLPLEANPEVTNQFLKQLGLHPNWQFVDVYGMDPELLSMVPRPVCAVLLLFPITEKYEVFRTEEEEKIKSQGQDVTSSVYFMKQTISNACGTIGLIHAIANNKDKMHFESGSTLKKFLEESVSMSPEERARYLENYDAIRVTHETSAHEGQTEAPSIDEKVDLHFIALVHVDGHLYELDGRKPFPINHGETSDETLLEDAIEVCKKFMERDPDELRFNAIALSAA
Description: UCH-L3 was diluted in USP buffer (50 mM Tris HCl; 0.5 mM EDTA; 5 mM DTT; 0.01% Triton X-100; Bovine Serum Albumin 0.05 mg·ml^−1 pH7.6). Compounds stocks (100 mM) were stored at −20° C. in DMSO. Compounds were tested at different concentrations: from 200 μM to 91 nM.
as §1, with “UCH-L3” for “UCH-L1”, “(UCH-L3)” for “(UCH-L1)”, “13 pM.” for “2.5 nM.”

IC50 [1] [µM]	IC50 [2] [µM]	IC50 [3] [µM]	SMILES
> 200	> 200	> 200	COc1cc2ncn(CC3(O)CCN(C(=O)C(C)C)CC3)c(=O)c2cc1OC [Example 7, 3-{[4-hydroxy-1-(2-methylpropanoyl)piperidin-4-yl]methyl}-6,7-dimethoxy-3,4-dihydroquinazolin-4-one]
> 200	> 200	> 200	CC(Cc1cccs1)C(=O)N1CCC(O)(Cn2cnc3cc(Cl)ccc3c2=O)CC1 (centres unmarked) [Example 11, 7-chloro-3-({4-hydroxy-1-[2-methyl-3-(thiophen-2-yl)propanoyl]piperidin-4-yl}methyl)-3,4-dihydroquinazolin-4-one]
> 200	> 200	> 200	O=C(CCc1cccs1)N1CCC(O)(Cn2cnc3ccccc3c2=O)CC1 [Example 12, 3-({4-hydroxy-1-[3-(thiophen-2-yl)propanoyl]piperidin-4-yl}methyl)-3,4-dihydroquinazolin-4-one]
> 200	> 200	> 200	O=C(CCC1CCCC1)N1CCC(O)(Cn2cnc3cc(Cl)ccc3c2=O)CC1 [Example 4, 7-chloro-3-{[1-(3-cyclopentylpropanoyl)-4-hydroxypiperidin-4-yl]methyl}-3,4-dihydroquinazolin-4-one]
> 200	> 200	> 200	CC(Cc1cccs1)C(=O)N1CCC(O)(Cn2cnc3ccccc3c2=O)CC1 (centres unmarked) [Example 5, 3-({4-hydroxy-1-[2-methyl-3-(thiophen-2-yl)propanoyl]piperidin-4-yl}methyl)-3,4-dihydroquinazolin-4-one]
> 200	> 200	> 200	O=C(CCc1ccccc1)N1CCC(O)(Cn2cnc3ccccc3c2=O)CC1 [Example 1, 3-{[4-hydroxy-1-(3-phenylpropanoyl)piperidin-4-yl]methyl}-3,4-dihydroquinazolin-4-one]
> 200	> 200	> 200	O=C(CCC1CCCC1)N1CCC(O)(Cn2cnc3ccccc3c2=O)CC1 [Example 3, 3-{[1-(3-cyclopentylpropanoyl)-4-hydroxypiperidin-4-yl]methyl}-3,4-dihydroquinazolin-4-one]
> 200	> 200	> 200	CCC(CC)C(=O)N1CCC(O)(Cn2cnc3cc(Cl)ccc3c2=O)CC1 [Example 9, 7-chloro-3-{[1-(2-ethylbutanoyl)-4-hydroxypiperidin-4-yl]methyl}-3,4-dihydroquinazolin-4-one]
> 200	> 200	> 200	COc1ccccc1CCC(=O)N1CCC(O)(Cn2cnc3ccccc3c2=O)CC1 [Example 10, 3-({4-hydroxy-1-[3-(2-methoxyphenyl)propanoyl]piperidin-4-yl}methyl)-3,4-dihydroquinazolin-4-one]
> 200	> 200	> 200	CC(C)C(=O)N1CCC(O)(Cn2cnc3ccccc3c2=O)CC1 [Example 6, 3-{[4-hydroxy-1-(2-methylpropanoyl)piperidin-4-yl]methyl}-3,4-dihydroquinazolin-4-one]
> 200	–	> 200	O=C(CCc1ccccc1)N1CCC(O)(Cn2cnc3cc(Cl)ccc3c2=O)CC1 [Example 2, 7-chloro-3-{[4-hydroxy-1-(3-phenylpropanoyl)piperidin-4-yl]methyl}-3,4-dihydroquinazolin-4-one]
> 200	> 200	> 200	CC(Cc1ccccc1)C(=O)N1CCC(O)(Cn2cnc3cc(Cl)ccc3c2=O)CC1 (centres unmarked) [Example 14, 3-{[1-(2-benzylpropanoyl)-4-hydroxypiperidin-4-yl]methyl}-7-chloro-3,4-dihydroquinazolin-4-one]

SMILES	IC50 [1] [µM]	IC50 [2] [µM]	IC50 [3] [µM]
CC(Cc1ccccc1)C(=O)N1CCC(O)(Cn2cnc3ccccc3c2=O)CC1 (centres unmarked) [Example 13, 3-{[1-(2-benzylpropanoyl)-4-hydroxypiperidin-4-yl]methyl}-3,4-dihydroquinazolin-4-one]	> 200	> 200	> 200
